# According to patent publication US20240158810A1, “COMPOSITIONS AND METHODS FOR AMELIORATING ANTERODORSAL THALAMUS HYPEREXCITABILITY” (The Broad Institute, Inc., priority 2021, published 2024):
# Key:
# [1] = system: AD neurons expressing inhibitory DREADDs hM4Di-mCherry; experiment: C21-induced inhibition of hM4Di-expressing AD neuronal firing, ex vivo slice recording; format: cell-based, mouse; conditions: hM4Di-mCherry expressed in AD, 50 pA step current injection
# [2] = system: AD neurons of PTCHD1 KD mice; experiment: AD neuronal excitability rescue ex vivo in PTCHD1 KD mice (chemogenetic normalization); parameters: species or system mouse; conditions: PTCHD1 KD mice with hM4Di in AD; low dose of C21 (0.6 mg kg^-1 IP), 1 hr before slice preparation
# Source text: (§1) The inventors hypothesized that the increased excitability of AD neurons in KD mice may prevent synaptic strengthening during CFC training, which is necessary for efficient encoding. Specifically, in control mice the excitability of AD neurons would increase during training, which leads to strengthening of the AD→RSC circuit, but in KD mice due to the increased excitability of AD neurons before training there will not be the important training-induced increase in excitability and corresponding synaptic strengthening. By recording from AD neurons before and after CFC training in control and KD groups, the inventors obtained experimental evidence to support this idea (FIG. 14G). Without intending to be bound by theory, these findings support a correlation between neuronal hyperexcitability and impairments in long-term potentiation (Speca et al., 2014: Gruter et al., 2015). The inventors next developed a dose-dependent chemogenetic approach to normalize the excitability of AD neurons in KD mice (FIG. 6D).
# (§2) Chemogenetic and optogenetic experiments. For chemogenetic (i.e., hM4Di or hM3Dq) neuronal activity manipulation experiments, we used the second-generation agonist known as compound 21 (C21). This agonist was purchased in a water-soluble dihydrochloride form (Hello Bio). […]
# [3] = system: AD→RSC circuit; experiment: AMPA/NMDA ratio of the AD→RSC circuit after CFC training in PTCHD1 KD mice; format: in vivo, mouse; conditions: PTCHD1 KD mice with hM4Di in AD, low dose of C21 (0.6 mg kg^-1 IP)
# Source text: as §1, §2
# [4] = system: RSC cFos ensembles; experiment: cFos activation in RSC during CFC training in PTCHD1 KD mice; format: in vivo, mouse; conditions: PTCHD1 KD mice with hM4Di in AD, low dose of C21 (0.6 mg kg^-1 IP)
# [5] = system: PTCHD1 KD mice; experiment: Contextual fear conditioning long-term memory recall test in PTCHD1 KD mice; format: in vivo, mouse; conditions: PTCHD1 KD mice with hM4Di in AD; low dose of C21 (0.6 mg kg^-1 IP) before CFC training
# Source text: as §1
# Chemogenetic and optogenetic experiments. For chemogenetic (i.e., hM4Di or hM3Dq) neuronal activity manipulation experiments, we used the second-generation agonist known as compound 21 (C21). […]
# Contextual fear conditioning. […] Since optogenetic manipulations (i.e., optic fibers) interfered with automated motion detection, freezing behavior was manually quantified for all experiments.
compound,measurement,setting,value
Cl.Cl.c1ccc2c(c1)N=C(N1CCNCC1)c1ccccc1N2 [C21],AD neuronal firing,[1],reversibly decreased AD neuronal firing
same,excitability of AD neurons,[2],returned to physiological levels
same,training-induced strengthening of the AD→RSC circuit (AMPA/NMDA ratio),[3],rescued
same,training-induced CFOS ensemble size in RSC,[4],rescued
same,LTM recall (CFC),[5],rescued
